The target of assay [1] is α-glucosidase (Yeast). The assay can be described thus: α-glucosidase inhibitory activity (PNPG substrate, absorbance at 405 nm). Particulars: α-glucosidase 0.2 U/mL, pH 6.8, 37 °C. It is filed as biochemical. How it is done:
(§1) The α-glucosidase inhibitory activity of the FSI samples was measured using the method described by Xiao et al., with minor modifications. Each sample solution (0.2 mL) was mixed with 1 mL of α-glucosidase (0.2 U/mL) of pH = 6.8 phosphate buffer solution. After incubation at 37 °C for 15 min, 0.5 mL of 5 mmol/L PNPG in phosphate buffer solution was added. The reaction was terminated by the addition of 1 mL of 0.1 mol/L sodium Na2CO3 […] at 37 °C for 15 min. The absorbance was measured at 405 nm. The α-glucosidase inhibitory activity was calculated using the following Equation (1):(1) α-Glucosidase inhibitory activity(%)=(ΔAcontrol−ΔAsample/ΔAcontrol)×100

The subject of assay [2] is α-glucosidase (Yeast). The assay can be described thus: Fluorescence quenching (Stern–Volmer) and thermodynamic parameters. The format is binding. How it is done: An equal volume of polyphenol solution (0.02 mg/mL) was added to 3 mL of α-glucosidase solution (0.05 mg/mL) in 9 separate additions of 10 μL each. The mixture was shaken and then placed in a warm bath at 37 °C for 15 min. The system was scanned for fluorescence at three temperatures (298 K, 303 K, 310 K) using an F-7000 fluorescence spectrometer (Hitachi, Tokyo, Japan) at an excitation wavelength of 280 nm and excitation and emission slits of 5 nm. The fluorescence was scanned in the range of 310–500 nm and the corresponding blank control fluorescence spectra were subtracted to calculate the fluorescence. The Stern–Volmer equation was used to calculate the fluorescence burst constants and determine the type of burst.
Therefore, the spontaneity and binding force of their interactions can be studied by calculating thermodynamic parameters. The values of the free energy change (ΔG), enthalpy change (ΔH) and entropy change (ΔS) can be calculated by Equations (5) and (6). (5) ΔG=[…]=ΔH−TΔS (6) lnKb2/Kb1=[…]ΔH×1/R where R = 8.314 J/(mol·K).

Assay [3] deals with α-glucosidase (Yeast). The experiment in a line: α-glucosidase inhibition type and kinetic analysis (Lineweaver–Burk). The format is biochemical. Particulars: for type of inhibition: Lineweaver–Burk plots; for pKi: binding to α-glucosidase, Lineweaver–Burk. Here is the method:
In 5 mL of the reaction system, different concentrations of PNPG (0.5 mL) were mixed with different concentrations of polyphenols (0.1 mL) in a warm bath at 37 °C for 5 min, α-glucosidase solution (1 mL) was added and the absorbance was recorded at 405 nm in real time. Lineweaver–Burk curve method using the inverse of the PNPG concentration 1/(s) as the horizontal coordinate and the inverse of the enzymatic reaction rate 1/v as the vertical coordinate, and the type of inhibition was determined from the characteristics of the graph.

Assay [4] has as its system α-glucosidase (Yeast). The experiment in a line: Omission experiment (model, single polyphenol and recombinant solutions). It is filed as biochemical. Particulars: single polyphenol solution at its content in FSI extract (RU 3.40, QU 0.38, HY 0.34, QI 0.23, KA 0.23 mg/mL). How it is done:
as §1
Three different solutions were prepared based on different polyphenol fractions (RU (3.40 mg/mL), QU (0.38 mg/mL), HY (0.34 mg/mL), QI (0.23 mg/mL) and KA (0.23 mg/mL): (1) Model solution: a model solution based on the composition of FSI extract. (2) Single polyphenol solution: a component solution containing only a single polyphenol, prepared based on the polyphenol content in FSI extract. (3) Recombinant solution: a reconstituted solution consisting of the missing individual polyphenol. The α-glucosidase inhibitory activities of the model, single polyphenol and recombinant solutions were determined and the contribution of the missing polyphenols to α-glucosidase activity inhibition was calculated.

pKi: −log10 of the molar value. Entries after “also recorded” stand apart in the source; their conditions may differ. Marks after values point to notes of the source that are not given here.

On to `O=c1c(O[C@@H]2O[C@H](CO)[C@H](O)[C@H](O)[C@H]2O)c(-c2ccc(O)c(O)c2)oc2cc(O)cc(O)c12` [Hyperoside, hyperoside], for which, on α-glucosidase (Yeast) [1], the IC50 is on record as 12.77 ± 0.07 ^d mg/mL. The results for the KSV in the assay with α-glucosidase (Yeast) [2] (298 K), with α-glucosidase (Yeast) [2] (303 K) and with α-glucosidase (Yeast) [2] (310 K) were 124300 L/mol, 89600 L/mol and 111700 L/mol, respectively. Besides, the Kq in the assay with α-glucosidase (Yeast) [2] (298 K) came out at 1.243e+13 M⁻¹ s⁻¹; in the assay with α-glucosidase (Yeast) [2] (303 K), 8.96e+12 M⁻¹ s⁻¹; in the assay on α-glucosidase (Yeast) [2] (310 K) it was 1.117e+13 M⁻¹ s⁻¹. Besides, the type of inhibition entry in the assay with α-glucosidase (Yeast) [3] (listed as HY) is on record as “mixed type of inhibition; also recorded: mixed inhibitors”. Also, the results for the negative-log Ki (pKi) on α-glucosidase (Yeast) [3] and at α-glucosidase (Yeast) [3] (listed as HY) were 2.42 and 2.41, respectively. The “α-Glucosidase Inhibition Rate of Omitted Compounds” value (shortened to “α-Glucosidase Inhibition Rate”) in the assay with α-glucosidase (Yeast) [4] was found to be 75.00 ± 0.32%.

Consider `COc1cc(-c2oc3cc(O)cc(O)c3c(=O)c2O)ccc1O` [Isorhamnetin, isorhamnetin], for which, at α-glucosidase (Yeast) [1], the IC50 is given as 255.00 ± 0.11 ^g mg/mL. For the same compound, the pKi (commonly the negative decadic logarithm of the Ki, by convention in mol/L) at α-glucosidase (Yeast) [3] is 1.82.

Take `O=c1c(O)c(-c2ccc(O)cc2)oc2cc(O)cc(O)c12` [Kaempferol, kaempferol]: the KSV was found to be 222300 L/mol in the assay with α-glucosidase (Yeast) [2] (298 K), 493300 L/mol with α-glucosidase (Yeast) [2] (303 K) and 424600 L/mol in the assay on α-glucosidase (Yeast) [2] (310 K). Also, the Kq with α-glucosidase (Yeast) [2] (298 K) was 2.223e+13 M⁻¹ s⁻¹; in the assay with α-glucosidase (Yeast) [2] (303 K), 4.933e+13 M⁻¹ s⁻¹; in the assay with α-glucosidase (Yeast) [2] (310 K) it was 4.246e+13 M⁻¹ s⁻¹. For the same compound, the type of inhibition result in the assay on α-glucosidase (Yeast) [3] (listed as KA) is “mixed type of inhibition; also recorded: mixed inhibitors”. In addition, the “α-Glucosidase Inhibition Rate” value in the assay on α-glucosidase (Yeast) [4] is reported as 81.00 ± 0.12%.

Regarding `O=C(O)c1ccc(O)c(O)c1` [Protocatechuic acid, protocatechuic acid], the IC50 against α-glucosidase (Yeast) [1] is on record as 369.00 ± 0.11 ^h mg/mL. The compound also showed a pKi at α-glucosidase (Yeast) [3] of 1.75.

In the case of `O=c1c(O)c(-c2ccc(O)c(O)c2)oc2cc(O)cc(O)c12` [Quercetin, quercetin], the KSV came out at 107100 L/mol with α-glucosidase (Yeast) [2] (298 K), 75200 L/mol in the assay with α-glucosidase (Yeast) [2] (303 K) and 55500 L/mol in the assay with α-glucosidase (Yeast) [2] (310 K). The Kq in the assay with α-glucosidase (Yeast) [2] (298 K) stood at 1.071e+13 M⁻¹ s⁻¹; in the assay on α-glucosidase (Yeast) [2] (303 K), 7.52e+12 M⁻¹ s⁻¹; in the assay on α-glucosidase (Yeast) [2] (310 K), 5.55e+12 M⁻¹ s⁻¹. The type of inhibition entry in the assay with α-glucosidase (Yeast) [3] (listed as QU) is “mixed type of inhibition; also recorded: mixed inhibitors”. Also, in the assay with α-glucosidase (Yeast) [4], the “α-Glucosidase Inhibition Rate” value is given as 89.00 ± 0.25%.

Turning to `C[C@@H]1O[C@@H](Oc2c(-c3ccc(O)c(O)c3)oc3cc(O)cc(O)c3c2=O)[C@H](O)[C@H](O)[C@H]1O` [Quercitrin, quercitrin], the IC50 against α-glucosidase (Yeast) [1] is listed as 25.37 ± 0.13 ^e mg/mL. In addition, the values for the KSV in the assay with α-glucosidase (Yeast) [2] (298 K), with α-glucosidase (Yeast) [2] (303 K) and in the assay with α-glucosidase (Yeast) [2] (310 K) were 74500 L/mol, 78700 L/mol and 54500 L/mol, respectively. Besides, the Kq in the assay with α-glucosidase (Yeast) [2] (298 K) worked out at 7.45e+12 M⁻¹ s⁻¹; in the assay with α-glucosidase (Yeast) [2] (303 K) it was 7.87e+12 M⁻¹ s⁻¹; with α-glucosidase (Yeast) [2] (310 K) it was 5.45e+12 M⁻¹ s⁻¹. The type of inhibition entry with α-glucosidase (Yeast) [3] (listed as QI) is reported as “mixed type of inhibition; also recorded: mixed inhibitors”. The same compound gave a pKi on α-glucosidase (Yeast) [3] of 2.27. Besides, the “α-Glucosidase Inhibition Rate” value in the assay with α-glucosidase (Yeast) [4] stood at 77.00 ± 0.20%.

`C[C@@H]1O[C@@H](OC[C@H]2O[C@@H](Oc3c(-c4ccc(O)c(O)c4)oc4cc(O)cc(O)c4c3=O)[C@H](O)[C@@H](O)[C@@H]2O)[C@H](O)[C@H](O)[C@H]1O` [Rutin]: the KSV with α-glucosidase (Yeast) [2] (298 K) is 45000 L/mol; in the assay on α-glucosidase (Yeast) [2] (303 K), 93700 L/mol; with α-glucosidase (Yeast) [2] (310 K) it was 93400 L/mol. The results for the Kq in the assay with α-glucosidase (Yeast) [2] (298 K), in the assay on α-glucosidase (Yeast) [2] (303 K) and with α-glucosidase (Yeast) [2] (310 K) were 4.5e+12 M⁻¹ s⁻¹, 9.37e+12 M⁻¹ s⁻¹ and 9.34e+12 M⁻¹ s⁻¹, respectively. In the assay with α-glucosidase (Yeast) [3] (listed as RU), the type of inhibition entry was “mixed type of inhibition; also recorded: mixed inhibitors”. In the assay with α-glucosidase (Yeast) [4], the “α-Glucosidase Inhibition Rate” value is on record as 69.00 ± 0.11%.
